Results from patent US20090162425A1, “METHODS AND COMPOSITIONS FOR INHIBITING UNDESIRABLE CELLULAR PROLIFERATION BY TARGETED LIPOSOME DELIVERY OF ACTIVE AGENTS” (University of Tennessee Research Foundation, priority 2007, published 2009).

Assays:
[1] = system: C6 GFP intracranial glioma tumors; conditions: 2 mg/Kg paclitaxel administered systemically, intracranial model
[2] = in vivo; cited from earlier work
[3] = cited from earlier work
[4] = system: C6 GFP flank glioma tumors; conditions: 2 mg/Kg paclitaxel administered systemically, flank model
[5] = molecular target: avidin (Gallus gallus, UniProt P02701); conditions: avidin-biotin interaction; cited from earlier work
Sequence of avidin (P02701 25-152): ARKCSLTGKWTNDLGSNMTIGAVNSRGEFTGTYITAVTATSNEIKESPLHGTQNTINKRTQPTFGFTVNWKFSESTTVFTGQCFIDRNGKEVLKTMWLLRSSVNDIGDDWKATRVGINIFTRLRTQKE

| gross deleterious effects (clinical monitoring and daily weights) [1] | gross deleterious effects (clinical monitoring and daily weights) [4] | Structure (SMILES) | drug bound to plasma proteins [2] | terminal half-life (mean) [2] [h] | terminal half-life (range) [2] [h] | log P [3] | dissociation half-life [5] |
| --- | --- | --- | --- | --- | --- | --- | --- |
| no gross deleterious effects | no gross deleterious effects | CC(=O)O[C@H]1C(=O)[C@@]2(C)[C@H]([C@H](OC(=O)c3ccccc3)[C@]3(O)C[C@H](OC(=O)[C@H](O)[C@@H](NC(=O)c4ccccc4)c4ccccc4)C(C)=C1C3(C)C)[C@]1(OC(C)=O)CO[C@@H]1C[C@@H]2O [paclitaxel] | More than 90% | 5 | 1.3 to 8.6 | 3.96 | – |
| – | – | O=C(O)CCCC[C@@H]1SC[C@@H]2NC(=O)N[C@@H]21 [biotin] | – | – | – | – | about 89 days |
